Columns and labels:
[1] = Enamel solubility reduction (FDA ESR model #33 modified), citric acid challenge; conditions: for Enamel Solubility Reduction (%): 1.0% w/w citric acid monohydrate pH 3.75, alkyl phosphates 0.50% w/w aqueous, pH 7, normalised to water negative control
Excerpt: (§1) FDA caries monograph enamel solubility reduction (ESR) model #33 is designed to evaluate in vitro the utility of fluoride toothpastes to protect enamel against a bacterial (lactic) acid challenge. In brief, enamel specimens are placed in a lactic acid challenge (pH 4.5) and the solubility determined by spectrophotometric analysis of released phosphate. Specimens are then placed in the relevant treatment solution derived from the supernatant of a 1:3 slurry of the toothpaste in deionised water. After 5 minutes the specimens are removed, rinsed, and placed in a fresh lactic acid challenge. The enamel solubility is determined once again, and the ESR value calculated as a percentage reduction relative to the baseline solubility.
The methodology described above was modified in order to evaluate the ability of putative anti-erosion actives to confer protection against a more aggressive dietary acid challenge. […] The alkyl phosphates were tested as 0.50% w/w aqueous solutions at pH 7. Fluoride was included as a positive control, and Crest Cavity Protection was also run as an additional control standard.

[2] = Inhibition of citric acid-mediated enamel surface softening (Vickers microhardness/microindentation); set-up: species or system human; conditions: Example 1; for enamel surface microhardness (baseline = 100): ± = standard deviation; for levels of protection compared among SDP, PDEP and fluoride positive control: at 10 and 20 minutes; for levels of protection compared among SDP, PDEP and fluoride positive control / protection versus the fluoride positive control: in words; for protection versus the fluoride positive control: at 30 minutes
Protocol: The first stage of dental erosion and acid wear involves demineralisation of the hard tissue surface and consequent surface softening. The present study employed a Duramin Microhardness Tester to assess the protective effect of SDP and PDEP against an erosive challenge based on citric acid.
Sound human enamel specimens were polished with 2400 grit abrasive and subsequently immersed in an aqueous solution of the specified treatment at pH 7 for 2 minutes under ambient conditions, with agitation. After rinsing with deionised water, the enamel specimens were exposed to an erosive challenge comprising an aqueous solution of 0.30% w/w citric acid monohydrate, pH 3.6. The extent of acid damage was assessed by monitoring the decrease in enamel surface hardness as a function of acid exposure time. The microhardness value for each specimen at a given time point was based on the mean of 6 indents. Each treatment leg employed 3 enamel specimens, which were randomised according to baseline microhardness. A 300 ppm fluoride ion solution (from NaF) was employed as the positive control; deionised water was employed as the negative control. The protective effects of combination treatment solutions i.e. 0.50% alkyl phosphate plus 300 ppm fluoride, were also investigated.
The actives were tested as aqueous solutions at 0.50% w/w and pH 7.

[3] = Enamel solubility reduction (FDA ESR model #33 modified), phosphoric acid challenge
Excerpt: as §1
FDA ESR Model #33 was modified by replacing lactic acid with phosphoric acid, a dietary acid most commonly associated with cola drinks. Determination of enamel solubility in this study was based on analysis of the released calcium to prevent interference from the acid challenge.

[4] = 10 mins acid (0.30% w/w citric acid monohydrate, pH 3.6) after 2 min treatment at pH 7
[5] = 20 mins acid (0.30% w/w citric acid monohydrate, pH 3.6) after 2 min treatment at pH 7
[6] = 30 mins acid (0.30% w/w citric acid monohydrate, pH 3.6) after 2 min treatment at pH 7

Row | Compound | Enamel Solubility Reduction (%) [1] [%] | statistical comparison with the 300 ppm fluoride control ([1]; citric acid ESR, in words) | enamel surface microhardness (baseline = 100) [2, 4] | enamel surface microhardness (baseline = 100) [2, 5] | enamel surface microhardness (baseline = 100) [2, 6] | levels of protection compared among SDP, PDEP and fluoride positive control [2] | protection versus the fluoride positive control [2] | directional comparison with fluoride ([1]; citric acid ESR, in words) | protection against the phosphoric acid challenge compared to the negative water control ([3]; in words) | acid protection versus the 300 ppm fluoride ([3]; phosphoric acid ESR, in words) | Enamel Solubility Reduction (%) ([3]; phosphoric acid challenge, solubility from released calcium)
1 | potassium dodecyl ether (1EO) phosphate [PDEP] | 17.77 | statistically inferior | 92.5 ± 1.8 | 82.5 ± 2.7 | 78 ± 2.8 | comparable | statistically superior | – | – | – | –
2 | CCCCCCCCCCCCOP(=O)([O-])[O-].[Na+].[Na+] [SDP, sodium dodecyl phosphate] | 36.76 | not statistically different | 94 ± 1.7 | 84 ± 4.0 | 80 ± 2.0 | comparable | statistically superior | directionally superior | statistically significant protection | statistically superior | 16.02
